Data: patent US9221834B2 (Merck Sharp & Dohme Corp., priority 2010, dated 2015)

Experiments:
[1] = target: T1, endogenous CETP from serum (Homo sapiens, UniProt P11597); assay: RTA assay using endogenous CETP from serum (95% RTA); format: biochemical; conditions: RTA assay in 95% human serum, labeled with an asterisk
T1 construct: For the transfer assay using endogenous CETP from serum (95% RTA); from tissue; host or cells: human serum
T1 sequence (P11597 18-493): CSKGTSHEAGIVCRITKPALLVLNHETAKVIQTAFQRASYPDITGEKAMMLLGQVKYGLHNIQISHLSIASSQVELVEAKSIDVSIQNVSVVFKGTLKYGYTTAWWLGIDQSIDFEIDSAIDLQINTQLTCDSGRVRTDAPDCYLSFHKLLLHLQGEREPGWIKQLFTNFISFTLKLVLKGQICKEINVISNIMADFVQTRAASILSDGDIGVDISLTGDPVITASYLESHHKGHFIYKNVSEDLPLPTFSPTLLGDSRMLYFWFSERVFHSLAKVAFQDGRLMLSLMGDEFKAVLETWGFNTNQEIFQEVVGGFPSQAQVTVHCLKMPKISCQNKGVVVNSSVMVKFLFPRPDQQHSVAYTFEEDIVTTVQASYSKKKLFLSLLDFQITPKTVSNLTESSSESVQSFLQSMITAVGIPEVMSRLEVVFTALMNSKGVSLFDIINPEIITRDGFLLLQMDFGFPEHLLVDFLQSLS
Protocol: In Vitro Radioactive Assays of CETP-Catalyzed CE and TG Transfer (RTA Assay)
Reagents and sources are: [3H] cholesteryl oleate (GE #TRK.886), [3H] Triolein (Perkin-Elmer NET-431), Butylated hydroxyl toluene (Aldrich, #D4740-4), DOPC (Sigma, #P6354), Sodium Bromide (Fisher scientific #5255-500), PEG 8000 (Fisher, #BP233-1), and human HDL (Intracel Corp #RP-036).
An in vitro assay for determining IC50's to identify compounds that inhibit CETP transfer activity is performed based on a modification of a published method (Morton and Zilversmit, (1981) A plasma inhibitor of triglyceride and cholesteryl ester transfer activities, J. Biol. Chem. 256(23), 11992-11995). The ability of inhibitors to alter CETP activity is performed using two different assays: one using recombinant CETP and one using an edogenous plasma source of CETP. Both assays measure the transfer of [3H] cholesteryl oleate or [3H]triolein from exogenous LDL to HDL.
Radiolabeled donor particles are generated by first combining 100 μl of 200 μM butylated hydroxyl toluene in CHCl3, 216 μL of 21.57 mM DOPC in EtOH, and either 500 μCi [3H]-triolein (Perkin Elmer #NET-431) or 500 μCi [3H]-cholesteryl oleate (GE #TRK886) in a glass tube. Reagents are mixed, dried under nitrogen, and then resuspended in 2 mL of 50 mM Tris, 27 μM EDTA at pH 7.4. After a brief vortex, the solution is sonicated until clear and mixed with 20 mL of fresh human serum. The mixture is incubated overnight at 37° C. The [3H] labeled LDL substrate is separated at 1.063 g/ml density by sequential ultracentrifugal flotation in NaBr according to the method by (Havel, Eder et al. 1955; Chapman, Goldstein et al. 1981). Once isolated the particles are dialyzed 3× in CETP buffer (50 mM Tris, pH 7.4, 100 mM NaCl, 1 mM EDTA). Human HDL is purchased from Intracel and used as the acceptor particles.
Transfer assays are performed in a 96-well v-bottom polypropylene plate. […] After mixing, plates are counted by liquid scintillation. […]

[2] = target: T2, CETP (Homo sapiens, UniProt P11597); assay: Scintillation Proximity Assay (SPA) for CETP Activity; format: biochemical
T2 construct: made in house
T2 sequence (P11597 18-493): T1 sequence (P11597 18-493)
Protocol: Protocol: Scintillation Proximity Assay (SPA) for CETP Activity
First low density lipoprotein (LDL) (Meridian) was biotinylated by incubating LDL with biotin for 1 hour on ice, after which it was dialyzed to remove free biotin. Then compounds at varying concentrations were incubated with 15 nM CETP (reagent production group, In Vitro Pharmacology, MRL Rahway) and 50 ug/ml of the biotinylated LDL in 50 mM HEPES, 150 mM NaCl, pH 7.4, for 1 hour at 37° C. The reaction was started by adding ^3H-cholesterol ester high density lipoprotein (HDL) (American Radiochemicals Corp) at a concentration of ˜0.6 nM. The reaction proceeded for 2 hours at 37° C., after which time it was quenched by the addition of 12% acetic acid. PVT streptavadin-coated scintillation proximity beads, which had been brought to room temperature, were then added at a concentration of 4 mg/ml. The assay was then mixed and counted after one half hour in a Microbeta plate reader.

[3] = torcetrapib and atorvastatin concomitantly compared with atorvastatin alone; cited from earlier work

Row | SMILES | IC50 [1] | further results
1 | COC(=O)c1ccc(-c2cc(-c3cnc(N4CCC4)nc3CN3C(=O)O[C@H](c4cc(C(F)(F)F)cc(C(F)(F)F)c4)[C@@H]3C)c(F)cc2F)c(C)c1 [Example 142] | 145 nM | 
2 | Cc1cc(C(=O)O)ccc1-c1cc(-c2cnc(N3CCC3)nc2CN2C(=O)O[C@H](c3cc(C(F)(F)F)cc(C(F)(F)F)c3)[C@@H]2C)c(F)cc1F [Example 170] | 110 nM | 
3 | COc1ccc(CCC(=O)O)cc1-c1cnc(N2CCC2)nc1CN1C(=O)O[C@H](c2cccc(F)c2)[C@@H]1C [Example 277] | 35 nM | 
4 | COc1cc(F)c(C(C)C)cc1-c1ccc(-n2cccn2)nc1CN1C(=O)O[C@H](c2cc(C(F)(F)F)cc(C(F)(F)F)c2)[C@@H]1C [Example 299, (4S,5R)-5-[3,5-bis(trifluoromethyl)phenyl]-3-({3-[4-fluoro-2-methoxy-5-(propan-2-yl)phenyl]-6-(1H-pyrazol-1-yl)pyridin-2-yl}methyl)-4-methyl-1,3-oxazolidin-2-one] |  | IC50 [2]: 55.8 nM
5 | CCOC(=O)N1c2ccc(C(F)(F)F)cc2[C@@H](N(Cc2cc(C(F)(F)F)cc(C(F)(F)F)c2)C(=O)OC)C[C@H]1CC [torcetrapib, Torcetrapib] |  | incidence of mortality [3]: higher incidence of mortality
